“Also recorded” adds a separate entry of the source.
Test system: LB1751-EBV cells
Experiment: Chromium release assay: lysis by CTL 447A/5 of peptide-sensitised LB1751-EBV cells
Type: cell-based, human
Conditions: for Lysis by CTL 447A/5 of peptide-pulsed LB1751-EBV cells pre-treated with anti-HLA-A2 mAb MA2.1: MA2.1 (1/5 dilution of hybridoma supernatant) during 51Cr-labeling, E/T 20, 4 h; for Lysis by CTL 447A/5 of LB1751-EBV cells incubated with peptide: peptide concentration as high as 10 μM
Method: FIG. 4. […] (A) LB1751-EBV cells pulsed with peptides derived from MAGE-A10. Chiromium-labelled autologous EBV-transformed lymphoblastoid cells LB1751-EBV were pulsed for 30 min with peptides as indicated at various concentrations before addition of CTL 447A/5 at an E/T ratio of 20. Chromium release was measured after 4 h. (B) Enhancement by mAb MA2.1 of lysis of LB1751-EBV cells pulsed with MAGE-A10 peptides. LB1751-EBV cells were pre-treated with or without anti-HLA-A2 antibody MA2.1. The pre-treatment was performed by adding mAb MA2.1 during ^51Cr-labeling. Peptide sensitisation and chromium release assay were carried out as in (A).
FIG. 5. […] LB1751-EBVcells were pre-treated with or without anti-HLA-A2 antibody MA2. 1. Ab treatment and peptide sensitisation of the cells and chromium release assay were carried out as in FIG. 4.
In the amino acid sequence corresponding to the nucleotides 547-825 there are two nonapeptides, […] (codons 183-191 in the ORF) (SEQ. ID. NO. 46) and […] (254-262) (SEQ. ID. NO. 42), which conform to the HLA-A2.1 peptide binding motif, i.e., a nona- or decapeptide with Leu or Met at position 2 and Leu, Val or Ile at its C-terminus (Rammensee, H. G., et al., 1995, Immunogenetics, 41:178-228). These two peptides and their overlapping decapeptides were synthesised on solid phase using F-moc for transient NH2-terminal protection and characterised by mass spectrometry. The peptides were >90% pure, as indicated by analytical HPLC, and used to sensitise autologous lymphoblastoid cell line LB1751-EBV in a chromium release assay as described in (Boon, T., et al., 1980, J. Exp. Med 152:1184-1193) but modified as follows. The target cells were ^51Cr-labeled for 1 h at 37° C. and then washed extensively. 1,000 target cells were then incubated in 96-well microplates in the presence of various concentrations of peptides for 30 min at 37° C. and CTLs were added at an E/T ratio of 20. Chromium release was measured after 4 h at 37° C.
Enhancement of peptide binding to the HLA-A2 molecule was achieved by incubation of target cells during ^51Cr-labeling with a ⅕ dilution of hybridoma culture supernatant of mAb MA2.1 (McMichael, A. J., et al., 1980, Hum. Immunol. 1:121-129; and Bodmer, H., et al., 1989, Nature 342:443-446).
This peptide and its overlapping decapeptide […] (codons 232-241) (SEQ. ID. NO. 45) were synthesised by the technique described above. LB1751-EVB cells incubated with either of the peptides, at a concentration of as high as 10 μM peptide, were not lysed by CTL 447A/5. […] Enhancement of peptide binding to the HLA-A2 molecule was achieved by incubation of target cells during ^51Cr-labeling with a ⅕ dilution of hybridoma culture supernatant of mAb MA2.1 (McMichael, A. J., et al., 1980, Hum. Immunol. 1: 121-129; and Bodmer, H., et al., 1989, Nature 342.443-446).

[1] = cells pulsed 30 min with peptide at various concentrations, E/T ratio 20, chromium release after 4 h, no mAb MA2.1

| Sequence | Lysis by CTL 447A/5 of peptide-pulsed LB1751-EBV cells pre-treated with anti-HLA-A2 mAb MA2.1 | Sensitisation of LB1751-EBV cells to lysis by CTL 447A/5 [1] | Sensitisation of LB1751-EBV cells to lysis by CTL 447A/5 (peptide concentration 100 μM) | Lysis by CTL 447A/5 of LB1751-EBV cells incubated with peptide |
| --- | --- | --- | --- | --- |
| CMLLVFGIDV (listed as Homo sapiens) [decapeptide from MAGE-A10 (182-191)] | failed to confer recognition | failed to confer recognition | – | – |
| GLYDGMEHL (listed as Homo sapiens) [nonapeptide encoded by MAGE-A10 (codons 254-262), presented by HLA-A2] | significantly increased sensitivity to lysis | could sensitise LB1751-EBV cells to lysis; also recorded: recognises | – | – |
| GLYDGMEHLI (listed as Homo sapiens) [decapeptide encoded by MAGE-A10 (254-263)] | significantly increased sensitivity to lysis | less efficiently | – | – |
| GLYDGREHS (listed as Homo sapiens) [nonapeptide encoded by MAGE-A8 (codons 232-240)] | enhancement of lysis | – | did sensitise LB1751-EBV cells to lysis | not lysed |
| GLYDGREHSV (listed as Homo sapiens) [decapeptide encoded by MAGE-A8 (codons 232-241)] | not | – | – | not lysed |
| MLLVFGIDV [nonapeptide from MAGE-A10 (codons 183-191)] | failed to confer recognition | failed to confer recognition | – | – |

From patent US7547439B1, “Tumor rejection antigens” (Ludwig Institute for Cancer Research, priority 1998, dated 2009)
